Values joined by “and” are separate entries in the source; they are usually repeats but may differ in a detail not shown here. Equal entries are not always repeated.
Tested on: adult subjects with Major Depressive Disorder
Assay: Phase 3 open-label 1-year study: HAM-D total score, response and remission
Type: in vivo, human
Description: Secondary Objective: To assess the need for re-treatment with Compound (1) following initial treatment in adults with MDD currently experiencing an MDE over a 1-year period, and to assess the response of initial treatment and re-treatment(s) with Compound (1) following an initial 2-week treatment period in adults with MDD currently experiencing an MDE over a 1-year period.
Secondary Endpoints: The need for re-treatment with Compound (1) as assessed by: time to first re-treatment (Kaplan-Meier curves), number of subjects achieving the requirements for re-treatment, number of re-treatment cycles for each subject, the response of initial treatment and/or re-treatment as assessed by: change from baseline in the 17-item Hamilton Rating Scale for Depression (HAM-D) total score at the end of each 14-day treatment (initial and/or re-treatment) period, HAM-D response at the end of each 14-day treatment (initial and/or re-treatment) period, defined as a ≥50% reduction in HAM-D score from baseline, HAM-D remission at the end of each 14-day treatment (initial and/or re-treatment) period, defined as HAM-D total score≤7, Clinical Global Impression-Improvement (CGI-I) response, defined as “much improved” or “very much improved”, at the end of each 14-day treatment (initial and/or re-treatment) period, change from baseline in Clinical Global Impression-Severity (CGI-S) score at the end of each 14-day treatment (initial and/or re-treatment) period.
Study Population: Subjects were 18-75 years old, diagnosed with major depressive disorder (MDD) with a MADRS total score of ≥28 and a HAM-D total score of ≥20 at Screening and Day 1 (prior to dosing).
Treatment Groups: The 30 mg and 50 mg dose groups were separated by time of enrollment. The study is comprised of two cohorts: one with Compound (1) 30 mg as a starting dose (30 mg Cohort: n=725), an initial cohort with Compound (1) 50 mg as a starting dose (50 mg Cohort: n=199). A patient receiving Compound (1) 30 mg could be dose reduced to 20 mg and patients receiving Compound (1) 50 mg could be dose reduced to 40 mg (based on tolerability). In all cohorts, Compound (1) is self-administered by patients as an oral therapy once nightly with food for 14 days.
Eligible subjects were given Compound (1)—to be taken at home in the evening with meal.
The cohorts pertaining to the different doses that the subjects received were defined as following: • 50 mg cohort: This cohort includes subjects who have initiated treatment with 50 mg and received re-treatment with 50 mg only. • 30 mg cohort: This cohort includes subjects who have initiated treatment with 30 mg regardless of the dose they have received in re-treatments. • Low dose cohort: This cohort includes subjects who have initiated treatment with 30 mg and received re-treatment with 30 mg only. • Dose switch cohort: This cohort includes subjects who have received initial treatment with 30 mg and at least one subsequent re-treatment with 50 mg. • Study Period X: starts on the date of the first dose of Compound (1) in cycle X and goes up to one day prior to the first dose of the next cycle. In some embodiments, X is any number from 1 to 5. • Treatment Period X: starts on the date of the first dose of Compound (1) in cycle X and goes up to one day after the last dose in cycle X. In some embodiments, X is any number from 1 to 5. • Treatment Cycle X: starts on the date of the first dose of Compound (1) in cycle X and goes up to 14 days after the last dose in cycle X. The treatment cycles may be denoted as C1-C5. • Observation period X: starts the day after Treatment Cycle X ends and goes up to one day prior to the start of next treatment cycle. In some embodiments, X is any number from 1 to 5.
Analysis Sets: The safety set was defined as all subjects who were administered study drug. The period-specific safety set includes subjects in the safety set who were administered study drug in the corresponding treatment cycle. […]

[1] = Study Period 1, safety set, 30 mg Cohort (N = 725), Day 126
[2] = Study Period 1, safety set, 50 mg Cohort (N = 199), Day 8
[3] = Study Period 1, safety set, 50 mg Cohort (N = 199), Day 15
[4] = Study Period 1, safety set, 50 mg Cohort (N = 199), Day 28
[5] = Study Period 1, safety set, 50 mg Cohort (N = 199), Day 70
[6] = Study Period 1, safety set, 50 mg Cohort (N = 199), Day 126
[7] = baseline HAM-D score ≥24, Study Period 1, 30 mg Cohort (N = 458), Day 8
[8] = baseline HAM-D score ≥24, Study Period 1, 30 mg Cohort (N = 458), Day 15
[9] = baseline HAM-D score ≥24, Study Period 1, 30 mg Cohort (N = 458), Day 28
[10] = baseline HAM-D score ≥24, Study Period 1, 30 mg Cohort (N = 458), Day 70
[11] = baseline HAM-D score ≥24, Study Period 1, 30 mg Cohort (N = 458), Day 126
[12] = baseline HAM-D score ≥24, Study Period 1, 50 mg Cohort (N = 127), Day 8
[13] = baseline HAM-D score ≥24, Study Period 1, 50 mg Cohort (N = 127), Day 15
[14] = baseline HAM-D score ≥24, Study Period 1, 50 mg Cohort (N = 127), Day 28
[15] = baseline HAM-D score ≥24, Study Period 1, 50 mg Cohort (N = 127), Day 70
[16] = baseline HAM-D score ≥24, Study Period 1, 50 mg Cohort (N = 127), Day 126
[17] = baseline HAM-D score ≥26, Study Period 1, 30 mg Cohort (N = 327), Day 8
[18] = baseline HAM-D score ≥26, Study Period 1, 30 mg Cohort (N = 327), Day 15
[19] = baseline HAM-D score ≥26, Study Period 1, 30 mg Cohort (N = 327), Day 28
[20] = baseline HAM-D score ≥26, Study Period 1, 30 mg Cohort (N = 327), Day 70
[21] = baseline HAM-D score ≥26, Study Period 1, 30 mg Cohort (N = 327), Day 126
[22] = baseline HAM-D score ≥26, Study Period 1, 50 mg Cohort (N = 85), Day 8
[23] = baseline HAM-D score ≥26, Study Period 1, 50 mg Cohort (N = 85), Day 15
[24] = baseline HAM-D score ≥26, Study Period 1, 50 mg Cohort (N = 85), Day 28
[25] = baseline HAM-D score ≥26, Study Period 1, 50 mg Cohort (N = 85), Day 70
[26] = baseline HAM-D score ≥26, Study Period 1, 50 mg Cohort (N = 85), Day 126

C[C@@]1(O)CC[C@H]2[C@H](CC[C@@H]3[C@@H]2CC[C@]2(C)[C@@H](C(=O)Cn4cc(C#N)cn4)CC[C@@H]32)C1 [Compound (1), 1-(2-((3R,5R,8R,9R,10S,13S,14S,17S)-3-hydroxy-3,13-dimethylhexadecahydro-1H-cyclopenta[a]phenanthren-17-yl)-2-oxoethyl)-1H-pyrazole-4-carbonitrile]
HAM-D Response [1]: 144/203 (70.9%)
HAM-D total score, Mean % CFB ± SD [1]: −62.3 ± 30.36%
HAM-D total score, Mean CFB ± SD [1]: −15.7 ± 8.07
HAM-D Remission [2]: 37/193 (19.2%)
HAM-D Response [2]: 97/193 (50.3%)
HAM-D total score, Mean % CFB ± SD [2]: −49.2 ± 22.41%
HAM-D total score, Mean CFB ± SD [2]: −12.3 ± 5.79
HAM-D total score, Mean % CFB ± SD [3]: −63.6 ± 22.70%
HAM-D total score, Mean CFB ± SD [3]: −16±6.0 and −16.0±6.04
HAM-D Remission [4]: 72/191 (37.7%)
HAM-D Response [4]: 120/191 (62.8%)
HAM-D total score, Mean % CFB ± SD [4]: −58.3 ± 26.05%
HAM-D total score, Mean CFB ± SD [4]: −14.6 ± 6.75
HAM-D Remission [5]: 41/118 (34.7%)
HAM-D Response [5]: 69/118 (58.5%)
HAM-D total score, Mean % CFB ± SD [5]: −53.7 ± 28.40%
HAM-D total score, Mean CFB ± SD [5]: −13.6 ± 7.45
HAM-D Remission [6]: 19/30 (63.3%)
HAM-D Response [6]: 22/30 (73.3%)
HAM-D total score, Mean % CFB ± SD [6]: −65.2 ± 33.96%
HAM-D total score, Mean CFB ± SD [6]: −16.3 ± 9.06
HAM-D Remission [7]: 70/446 (15.7%)
HAM-D Response [7]: 192/446 (43.0%)
HAM-D total score, Mean % CFB ± SD [7]: −43.3 ± 25.63%
HAM-D total score, Mean CFB ± SD [7]: −12.0 ± 7.17
HAM-D Remission [8]: 164 (37.9%) and 164/433 (37.9%)
HAM-D Response [8]: 319 (73.7%) and 319/433 (73.7%)
HAM-D total score, Mean % CFB ± SD [8]: −60.9 ± 25.50%
HAM-D total score, Mean CFB ± SD [8]: −16.9 ± 7.34
HAM-D Remission [9]: 132/431 (30.6%)
HAM-D Response [9]: 250/431 (58.0%)
HAM-D total score, Mean % CFB ± SD [9]: −53.9 ± 28.59%
HAM-D total score, Mean CFB ± SD [9]: −15.0 ± 8.27
HAM-D Remission [10]: 70/247 (28.3%)
HAM-D Response [10]: 125/247 (50.6%)
HAM-D total score, Mean % CFB ± SD [10]: −49.2 ± 32.86%
HAM-D total score, Mean CFB ± SD [10]: −13.8 ± 9.39
HAM-D Remission [11]: 58/120 (48.3%)
HAM-D Response [11]: 90/120 (75.0%)
HAM-D total score, Mean % CFB ± SD [11]: −66.0 ± 28.29%
HAM-D total score, Mean CFB ± SD [11]: −18.2 ± 7.88
HAM-D Remission [12]: 18/122 (14.8%)
HAM-D Response [12]: 61/122 (50.0%)
HAM-D total score, Mean % CFB ± SD [12]: −49.3 ± 21.32%
HAM-D total score, Mean CFB ± SD [12]: −13.3 ± 5.87
HAM-D Remission [13]: 44 (37.3%) and 44/118 (37.3%)
HAM-D Response [13]: 94 (79.7%) and 94/118 (79.7%)
HAM-D total score, Mean % CFB ± SD [13]: −64.1 ± 21.73%
HAM-D total score, Mean CFB ± SD [13]: −17.4 ± 6.05
HAM-D Remission [14]: 41/120 (34.2%)
HAM-D Response [14]: 74/120 (61.7%)
HAM-D total score, Mean % CFB ± SD [14]: −58.0 ± 25.97%
HAM-D total score, Mean CFB ± SD [14]: −15.7 ± 7.17
HAM-D Remission [15]: 26/79 (32.9%)
HAM-D Response [15]: 43/79 (54.4%)
HAM-D total score, Mean % CFB ± SD [15]: −53.0 ± 28.53%
HAM-D total score, Mean CFB ± SD [15]: −14.4 ± 7.93
HAM-D Remission [16]: 13/17 (76.5%)
HAM-D Response [16]: 14/17 (82.4%)
HAM-D total score, Mean % CFB ± SD [16]: −74.8 ± 27.94%
HAM-D total score, Mean CFB ± SD [16]: −19.9 ± 8.10
HAM-D Response [17]: 138/319 (43.3%)
HAM-D total score, Mean % CFB ± SD [17]: −43.7 ± 25.84%
HAM-D total score, Mean CFB ± SD [17]: −12.6 ± 7.44
HAM-D Response [18]: 220 (71.4%) and 220/308 (71.4%)
HAM-D total score, Mean % CFB ± SD [18]: −60.6 ± 26.28%
HAM-D total score, Mean CFB ± SD [18]: −17.6 ± 7.77
HAM-D Response [19]: 184/305 (60.3%)
HAM-D total score, Mean % CFB ± SD [19]: −55.6 ± 28.46%
HAM-D total score, Mean CFB ± SD [19]: −16.2 ± 8.48
HAM-D Response [20]: 87/170 (51.2%)
HAM-D total score, Mean % CFB ± SD [20]: −49.8 ± 32.15%
HAM-D total score, Mean CFB ± SD [20]: −14.7 ± 9.65
HAM-D Response [21]: 60/82 (73.2%)
HAM-D total score, Mean % CFB ± SD [21]: −65.6 ± 28.15%
HAM-D total score, Mean CFB ± SD [21]: −19.1 ± 8.11
HAM-D Remission [22]: 13/82 (15.9%)
HAM-D Response [22]: 43/82 (52.4%)
HAM-D total score, Mean % CFB ± SD [22]: −49.6 ± 21.15%
HAM-D total score, Mean CFB ± SD [22]: −14.0 ± 6.05
HAM-D Remission [23]: 27 (33.8%) and 27/80 (33.8%)
HAM-D Response [23]: 64 (80.0%) and 64/80 (80.0%)
HAM-D total score, Mean % CFB ± SD [23]: −64.3 ± 20.17%
HAM-D total score, Mean CFB ± SD [23]: −18.2 ± 5.89
HAM-D Remission [24]: 26/80 (32.5%)
HAM-D Response [24]: 51/80 (63.8%)
HAM-D total score, Mean % CFB ± SD [24]: −58.5 ± 24.24%
HAM-D total score, Mean CFB ± SD [24]: −16.6 ± 7.05
HAM-D Remission [25]: 18/56 (32.1%)
HAM-D Response [25]: 30/56 (53.6%)
HAM-D total score, Mean % CFB ± SD [25]: −52.9 ± 28.48%
HAM-D total score, Mean CFB ± SD [25]: −15.1 ± 8.23
HAM-D Remission [26]: 8/10 (80%)
HAM-D Response [26]: 8/10 (80%)
HAM-D total score, Mean % CFB ± SD [26]: −74.2 ± 34.34%
HAM-D total score, Mean CFB ± SD [26]: −21.0 ± 10.12
HAM-D Remission (baseline HAM-D score ≥26, Study Period 1, Table 3: 30 mg Cohort (N = 327), Table 19 head: Low Dose Cohort (N = 327), Day 15): 113 (36.7%) and 113/308 (36.7%)
HAM-D Remission (baseline HAM-D score ≥26, Study Period 1, Table 19: Low Dose Cohort (N = 327), Day 8): 49/319 (15.4%)
HAM-D Remission (baseline HAM-D score ≥26, Study Period 1, Table 19: Low Dose Cohort (N = 327), Day 28): 94/305 (30.8%)
HAM-D Remission (baseline HAM-D score ≥26, Study Period 1, Table 19: Low Dose Cohort (N = 327), Day 70): 43/170 (25.3%)
HAM-D Remission (baseline HAM-D score ≥26, Study Period 1, Table 19: Low Dose Cohort (N = 327), Day 126): 37/82 (45.1%)
